Patent US8691986B2, “Azetidine and piperidine compounds useful as PDE10 inhibitors” (Amgen Inc., priority 2012, dated 2014)

Assays:
human PDE10A2 = human PDE10A2 (Homo sapiens (Human), UniProt Q9Y233); assay: PDE10A enzyme inhibition, PDE IMAP TR-FRET assay; assay type: biochemical; conditions: FAM-cAMP substrate
Experimental: An IMAP TR-FRET assay was used to analyze the enzyme activity (Molecular Devices Corp., Sunnyvale Calif.). 10 μL of serial diluted PDE10A (BPS Bioscience, San Diego, Calif.) or tissue homogenate was incubated with equal volumes of diluted fluorescein labeled cAMP or cGMP for 90 min in 384-well Polypropylene assay plates (Greiner, Monroe, N.C.) at room temperature. After incubation, the reaction was stopped by adding 55 μL of diluted binding reagents and was incubated for 4 hours to overnight at room temperature. The plates were read on an Envision (Perkin Elmer, Waltham, Mass.) for time resolved fluorescence resonance energy transfer. The data were analyzed with Genedata Screener® (Lexington, Mass.).
To check the inhibition profile, 0.2 μL of serial diluted compounds were incubated with 10 μL of diluted PDE10 enzyme (BPS Bioscience, San Diego, Calif.) or tissue homogenate in a 384-well Polypropylene assay plate (Greiner, Monroe, N.C.) for 60 min at room temperature. After incubation, 10 μL of diluted fluorescein labeled cAMP or cGMP substrate was added and incubated for 90 min at room temperature. The reaction was stopped by adding 55 μL of diluted binding reagents and plates were read on an Envision (Perkin Elmer, Waltham, Mass.) for time resolved fluorescence resonance energy transfer. The data were analyzed with Genedata Screener® (Lexington, Mass.).
Purified human PDE2A1 and PDE10A2 enzymes were obtained from BPS Bioscience (San Diego, Calif.). IMAP™ TR-FRET progressive binding system, FAM-cAMP substrate were from Molecular Devices (Sunnyvale, Calif.).
The PDE IMAP assay was conducted in a 384-well black Greiner polypropylene plate (Sigma, St. Louis, Mo.). PDE inhibitors were serial diluted in 100% DMSO and dispensed into assay plate at […] per well using Echo® Liquid Handling System from LABCYTE. Ten μL of PDE enzyme in IMAP reaction buffer (10 mM Tris-HCl, pH 7.2, 10 mM MgCl2, 0.05% NaN3, and 0.01% Tween-20) was added into the assay wells. The PDE enzyme concentration used was based on each lot of enzyme activity, to ensure enzyme reaction falls in a linear range under assay condition. 1.4 nM of PDE2 or 8 μM PDE10 were used in the assay system. […] Enzyme reaction was allowed to proceed at room temperature for 90 min, and the reaction is stopped by 55 μl addition of binding reagent according to manufacturer's recommendation. The mixture is further incubated at room temperature for additional 4 hours, and signal was read on an Envision multimode reader (PerkinElmer). Fluorescence signals were measured at 520 nm and 485 nm. The signal ratio at 520/485 nm corresponded to the generation of reaction product of AMP, and it was used in all data analysis. Values from DMSO-treated wells were normalized to POC=100, and no-enzyme wells were normalized to POC=0. IC50 values were determined by using the Genedata Screener V9.0.1. The curve fitting algorithm used for dose response data analysis in Genedata Screener is a custom implementation of a robust curve-fitting algorithm called ROUT (Robust regression with outlier detection) and uses a four-parameter logistical (4 PL) Hill model.

human MDR1 (P-gp) = human MDR1 (P-gp) (Homo sapiens (Human), UniProt P08183); assay: Transcellular transport in human MDR1-transfected LLC-PK1 cells; assay type: in vitro ADME; conditions: pH 7.4, MDR1-LLC-PK1, 5 μM test compound
Experimental: Digoxin and mannitol were purchased from Sigma-Aldrich (St. Louis, Mo.). 3H-digoxin and 14C-mannitol were purchased from PerkinElmer Life and Analytical Sciences (Boston, Mass.). Transport buffer was prepared using Hank's balanced salt solution (HBSS) supplemented with 10 mM Hepes, pH 7.4 and 0.1% BSA (HHBSS, Invitrogen, Grand Island, N.Y., BSA, Bovine Serum Albumin, Calbiochem, La Jolla, Calif.).
Cultures were incubated at 37° C. in a humidified (95% relative humidity) atmosphere of 5% CO2/95% air. The parental cell line LLC-PK1 (porcine renal epithelial cells) was purchased from American Type Culture Collection (ATCC, Manassas, Va.). Human MDR1 and Sprague-Dawley rat mdra1 transfectants in LLC-PK1 were generated at Amgen (Thousand Oaks, Calif.). Cells were cultured in Medium 199 supplemented with 2 mM L-glutamine, penicillin (50 units/mL), streptomycin (50 μg/mL), and 10% (v/v) fetal bovine serum (all from Invitrogen) (Schinkel et al, 1995).
LLC-PK1, MDR1-LLC-PK1, and mdr1a-LLC-PK1 cell monolayers were seeded onto porous (1.0 μm) polycarbonate 96-well transwell membrane filters (Millipore Corp., Billerica, Mass.) and cultured for six days with one media replacement on day four prior to transwell experiments. Cells were washed once with warmed HHBS prior to transwell experiments. Experiments were initiated by replacing the buffer in each compartment with 0.15 mL of HBSS containing 0.1% BSA with and without 5 μM of test compound in triplicate wells. The plates were incubated for two hours at 37° C. in an EVO incubator with shaking. Aliquots (100 μl) from both donor and receiver chambers were transferred to 96 well plates or scintillation vials. Protein was precipitated by addition of 200 μL acetonitrile containing 0.1% formic acid and prazosin (25 ng/mL) as internal standard. After vortexing and centrifugation at 3000 rpm for 20 min, 150 μL supernatant samples were transferred to a new plate containing 50 μL water for LC-MS/MS analysis. Transcellular transport of 3H-Digoxin was used as a positive control for Pgp. Paracellular permeability of 14C-Mannitol was used to measure the integrity of the monolayer. Sample radioactivity was measured using a liquid scintillation counter (Packard Tri-Carb 2910TR, PerkinElmer).
The apparent permeability coefficient (Papp) of all tested agents was estimated from the slope of cumulative amount (dQ) of the agent vs. time (dt), and the equation: Papp=(dQ/dt)/(A*C0)
where dQ/dt is the penetration rate of the agent […], A is the surface area of the cell layer on the Transwell (0.11 cm2), and CO is the initial concentration of the test compound (μM).

Chain of human MDR1 (P-gp) (P08183 whole entry): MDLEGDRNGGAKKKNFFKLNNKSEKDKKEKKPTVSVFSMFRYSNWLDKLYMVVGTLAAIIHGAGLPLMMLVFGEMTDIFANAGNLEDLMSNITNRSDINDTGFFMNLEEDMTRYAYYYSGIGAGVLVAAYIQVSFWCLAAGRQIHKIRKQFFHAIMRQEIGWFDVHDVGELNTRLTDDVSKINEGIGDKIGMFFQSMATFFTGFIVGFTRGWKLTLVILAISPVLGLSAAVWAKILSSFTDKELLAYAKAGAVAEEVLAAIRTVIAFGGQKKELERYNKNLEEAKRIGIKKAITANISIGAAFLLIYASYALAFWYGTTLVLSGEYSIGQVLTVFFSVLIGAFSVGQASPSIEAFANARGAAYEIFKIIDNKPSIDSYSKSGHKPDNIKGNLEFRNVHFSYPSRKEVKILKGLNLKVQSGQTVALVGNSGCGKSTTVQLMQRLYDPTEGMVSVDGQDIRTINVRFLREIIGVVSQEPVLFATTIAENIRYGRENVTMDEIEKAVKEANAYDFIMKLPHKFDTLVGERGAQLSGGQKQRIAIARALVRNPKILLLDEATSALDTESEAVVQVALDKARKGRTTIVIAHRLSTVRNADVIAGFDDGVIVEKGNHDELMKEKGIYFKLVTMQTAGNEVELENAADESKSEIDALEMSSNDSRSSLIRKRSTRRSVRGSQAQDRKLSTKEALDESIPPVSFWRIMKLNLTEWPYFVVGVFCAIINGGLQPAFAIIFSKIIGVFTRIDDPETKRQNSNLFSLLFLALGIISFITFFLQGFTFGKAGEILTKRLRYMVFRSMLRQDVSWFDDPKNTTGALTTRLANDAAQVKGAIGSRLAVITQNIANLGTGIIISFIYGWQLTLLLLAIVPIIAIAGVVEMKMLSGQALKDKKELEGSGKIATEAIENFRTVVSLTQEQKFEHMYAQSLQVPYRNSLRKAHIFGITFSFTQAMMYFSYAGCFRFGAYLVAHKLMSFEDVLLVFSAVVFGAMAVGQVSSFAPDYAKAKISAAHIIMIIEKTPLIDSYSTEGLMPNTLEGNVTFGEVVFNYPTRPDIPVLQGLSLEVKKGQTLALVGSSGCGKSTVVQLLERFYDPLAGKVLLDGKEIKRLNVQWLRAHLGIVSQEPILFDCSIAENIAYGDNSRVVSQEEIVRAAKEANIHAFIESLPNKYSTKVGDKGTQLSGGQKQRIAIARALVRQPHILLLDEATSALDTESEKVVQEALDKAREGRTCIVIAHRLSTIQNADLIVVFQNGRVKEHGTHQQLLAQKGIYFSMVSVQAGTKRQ
Chain of human PDE10A2 (Q9Y233 267-1055): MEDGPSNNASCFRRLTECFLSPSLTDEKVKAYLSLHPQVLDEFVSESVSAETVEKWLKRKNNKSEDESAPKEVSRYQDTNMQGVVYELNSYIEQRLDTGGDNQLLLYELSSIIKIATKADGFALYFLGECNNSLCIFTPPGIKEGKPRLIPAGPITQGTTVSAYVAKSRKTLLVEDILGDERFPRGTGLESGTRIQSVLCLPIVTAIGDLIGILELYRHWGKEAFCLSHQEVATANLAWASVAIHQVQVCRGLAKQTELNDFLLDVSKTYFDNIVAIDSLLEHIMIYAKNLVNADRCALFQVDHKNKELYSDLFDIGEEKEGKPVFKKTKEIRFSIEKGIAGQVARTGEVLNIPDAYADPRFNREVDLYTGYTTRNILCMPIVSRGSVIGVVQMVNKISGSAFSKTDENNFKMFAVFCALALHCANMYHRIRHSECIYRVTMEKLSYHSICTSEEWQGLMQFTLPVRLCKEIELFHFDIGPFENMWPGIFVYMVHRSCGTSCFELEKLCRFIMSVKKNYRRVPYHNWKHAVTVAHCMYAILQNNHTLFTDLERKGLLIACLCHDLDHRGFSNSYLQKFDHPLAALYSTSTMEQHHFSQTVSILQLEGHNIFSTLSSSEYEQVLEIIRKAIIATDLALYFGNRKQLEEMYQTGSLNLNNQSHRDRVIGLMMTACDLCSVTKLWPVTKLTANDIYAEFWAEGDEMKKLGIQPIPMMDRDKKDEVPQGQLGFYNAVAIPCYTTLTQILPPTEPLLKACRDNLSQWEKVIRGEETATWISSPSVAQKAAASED

Row | Structure (SMILES) | IC50 (human PDE10A2) | efflux ratio at 2 h, 5 μM (human MDR1 (P-gp))
1 | CNC(=O)c1ccc(-c2nccnc2C2CCN(c3ccc4ccc(Cl)cc4n3)CC2)cc1F [Example 1, 4-(3-(1-(7-Chloroquinolin-2-Yl)Piperidin-4-Yl)Pyrazin-2-Yl)-2-Fluoro-N-Methylbenzamide] | 28.7 nM | 2.9
2 | CNC(=O)c1ccc(-c2nccnc2C2CCN(c3ccc4ccc(F)cc4n3)CC2)cc1F [Example 2, 2-Fluoro-4-(3-(1-(7-Fluoroquinolin-2-Yl)Piperidin-4-Yl) Pyrazin-2-Yl)-N-Methylbenzamide] | 6.3 nM | 2.4
3 | CNC(=O)c1ccc(-c2nccnc2C2CCN(c3ccc4ccccc4n3)CC2)cc1F [Example 3, 2-Fluoro-N-Methyl-4-(3-(1-(Quinolin-2-Yl)Piperidin-4-Yl)Pyrazin-2-Yl)Benzamide] | 3.1 nM | 2
4 | CNC(=O)c1ccc(-c2nccnc2C2CCN(c3ccc4cc(F)ccc4n3)CC2)cc1F [Example 4, 2-Fluoro-4-(3-(1-(6-Fluoroquinolin-2-Yl)Piperidin-4-Yl)Pyrazin-2-Yl)-N-Methylbenzamide] | 2.8 nM | 3.4
5 | CNC(=O)c1ccc(-c2nccnc2C2CCN(c3ccc4cccc(F)c4n3)CC2)cc1F [Example 5, 2-Fluoro-4-(3-(1-(8-Fluoroquinolin-2-Yl)Piperidin-4-Yl)Pyrazin-2-Yl)-N-Methylbenzamide] | 7.5 nM | 2.5
6 | CNC(=O)c1ccc(-c2nccnc2C2CN(c3ncc4ccccc4n3)C2)cc1F [Example 6, 2-Fluoro-N-Methyl-4-(3-(1-(Quinazolin-2-Yl)Azetidin-3-Yl)Pyrazin-2-Yl)Benzamide] | 7.6 nM | 1.8
7 | CNC(=O)c1ccc(-c2nccnc2C2CN(c3ccc4ccccc4n3)C2)cc1F [Example 7, 2-Fluoro-N-Methyl-4-(3-(1-(Quinolin-2-Yl)Azetidin-3-Yl) Pyrazin-2-Yl)Benzamide] | 4 nM | 2.95
8 | CNC(=O)c1ccc(-c2nccnc2C2CN(c3ccc4ccc(F)cc4n3)C2)cc1F [Example 8, 2-Fluoro-4-(3-(1-(7-Fluoroquinolin-2-Yl)Azetidin-3-Yl) Pyrazin-2-Yl)-N-Methylbenzamide] | 0.5 nM | 2.8
9 | CNC(=O)c1ccc(-c2nccnc2C2CN(c3ncc4ccc(F)cc4n3)C2)cc1F [Example 9, 2-Fluoro-4-(3-(1-(7-Fluoroquinazolin-2-Yl)Azetidin-3-Yl)Pyrazin-2-Yl)-N-Methylbenzamide] | 30.9 nM | 1.8
10 | CNC(=O)c1ccc(-c2nccnc2C2CN(c3ncc4ccc(Cl)cc4n3)C2)cc1F [Example 10, 4-(3-(1-(7-Chloroquinazolin-2-Yl)Azetidin-3-Yl)Pyrazin-2-Yl)-2-Fluoro-N-Methylbenzamide] | 5.9 nM | 1.8
11 | CNC(=O)c1ccc(-c2nccnc2C2CN(c3ncc4cc(F)ccc4n3)C2)cc1F [Example 11, 2-Fluoro-4-(3-(1-(6-Fluoroquinazolin-2-Yl)Azetidin-3-Yl)Pyrazin-2-Yl)-N-Methylbenzamide] | 16.6 nM | 1.75
12 | CNC(=O)c1ccc(-c2nccnc2C2CN(c3ncc4cc(F)c(Cl)cc4n3)C2)cc1F [Example 12, 4-(3-(1-(7-Chloro-6-Fluoroquinazolin-2-Yl)Azetidin-3-Yl)Pyrazin-2-Yl)-2-Fluoro-N-Methylbenzamide] | 3.9 nM | 1.85
13 | CNC(=O)c1ccc(-c2nccnc2C2CN(c3ccc4cc(F)ccc4n3)C2)cc1F [Example 13, 2-Fluoro-4-(3-(1-(6-Fluoroquinolin-2-Yl)Azetidin-3-Yl) Pyrazin-2-yl)-N-Methylbenzamide] | 1.7 nM | 3.02
14 | CNC(=O)c1ccc(-c2nccnc2C2CN(c3ccc4ncc(Cl)cc4n3)C2)cc1F [Example 14, 4-(3-(1-(7-Chloro-1,5-Naphthyridin-2-Yl)Azetidin-3-Yl)Pyrazin-2-Yl)-2-Fluoro-N-Methylbenzamide] | 3.6 nM | 1.25
